Experimental data taken from patent US5858684A, “Method of screening calcium receptor-active molecules” (priority 1995, dated 1999).
Entries after “also recorded” stand apart in the source; their conditions may differ. Read-outs that look alike come from different tables or passages of the source.

How the values were obtained:
[1] = system: osteoclast calcium receptor; assay: increase in [Ca2+]i in indo-1-loaded rat osteoclasts; format: cell-based
[2] = target: T1, calcium receptor expressed from bovine parathyroid cell mRNA in Xenopus oocytes (Bos taurus, UniProt P35384); assay: Cl- current in Xenopus oocytes injected with bovine parathyroid mRNA; format: cell-based; conditions: for oscillatory increases in Cl- current (words): bovine parathyroid mRNA
T1 sequence (P35384 20-1085): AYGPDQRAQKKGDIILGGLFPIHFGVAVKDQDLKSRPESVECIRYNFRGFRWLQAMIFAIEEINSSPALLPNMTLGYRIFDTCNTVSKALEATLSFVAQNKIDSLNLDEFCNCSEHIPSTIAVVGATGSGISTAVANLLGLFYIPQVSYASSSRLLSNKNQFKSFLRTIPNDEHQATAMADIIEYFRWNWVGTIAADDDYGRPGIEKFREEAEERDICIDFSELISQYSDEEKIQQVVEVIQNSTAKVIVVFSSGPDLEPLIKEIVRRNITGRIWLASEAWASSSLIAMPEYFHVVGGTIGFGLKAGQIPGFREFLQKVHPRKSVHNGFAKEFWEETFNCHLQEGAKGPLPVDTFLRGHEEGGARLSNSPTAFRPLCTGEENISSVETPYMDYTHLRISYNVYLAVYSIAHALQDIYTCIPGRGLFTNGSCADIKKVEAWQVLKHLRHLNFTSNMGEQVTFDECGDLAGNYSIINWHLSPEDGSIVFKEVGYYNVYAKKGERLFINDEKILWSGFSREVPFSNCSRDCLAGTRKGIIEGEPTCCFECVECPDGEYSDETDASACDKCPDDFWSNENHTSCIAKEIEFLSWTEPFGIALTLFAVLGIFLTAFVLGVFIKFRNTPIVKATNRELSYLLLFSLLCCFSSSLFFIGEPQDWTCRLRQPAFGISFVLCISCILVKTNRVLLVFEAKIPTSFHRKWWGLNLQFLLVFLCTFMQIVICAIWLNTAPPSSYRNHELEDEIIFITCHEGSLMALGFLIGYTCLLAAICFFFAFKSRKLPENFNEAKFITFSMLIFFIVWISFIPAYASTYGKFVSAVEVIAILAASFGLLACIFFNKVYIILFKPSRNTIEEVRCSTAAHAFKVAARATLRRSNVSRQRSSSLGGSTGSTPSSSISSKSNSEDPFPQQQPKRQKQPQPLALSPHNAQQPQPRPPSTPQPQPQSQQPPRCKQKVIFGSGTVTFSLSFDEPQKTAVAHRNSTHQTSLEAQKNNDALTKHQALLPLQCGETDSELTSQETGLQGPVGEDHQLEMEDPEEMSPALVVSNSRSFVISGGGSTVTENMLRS
Procedure: (§1) Glass capillary tubes (1 mm diameter) were pulled to a fine tip and manually broken to achieve a tip diameter of about 15 μmeters. A droplet of mRNA (1 ng/nl in diethylpyrocarbonate (DEPC)-treated water) was placed onto […]® and drawn into the capillary tube by suction. The capillary tube was then connected to a picospritzer (WPI Instruments) and the volume of the air-pulsed droplets adjusted to deliver 50 ng of mRNA (typically 50 nl). A 35-mm culture dish with a patch of nylon stocking fixed to the bottom was used to secure the oocytes during injection of mRNA into the vegetal pole. The injected oocytes were placed into a 35-mm culture dish containing MBS, 100 μg/ml penicillin and 100 μg/ml streptomycin and incubated at 18° C. for 3 days.
(§2) Following incubation, an oocyte was placed into a 100-μl plastic chamber and superfused with MBS at a flow rate of 0.5 ml/min using a peristaltic pump. Test molecules or inorganic polycations were added by rapidly moving the tubing into different buffers. Recording and current-passing electrodes were constructed from thin-wall capillary tubing pulled to a resistance of 1-3 Mohms and filled with 3M KCl. […] Currents were recorded directly onto a strip chart recorder.

C-cell calcium receptor = target: T2, C-cell calcium receptor (Rattus norvegicus, UniProt P48442); format: cell-based; set-up: Neoplastic C-cells derived from a rat medullary thyroid carcinoma (rMTC 6-23); host or cells: rMTC 6-23; conditions: rMTC 6-23 cells, fura-2; inactive = no increase in cytosolic Ca2+ at 1-5 mM
T2 sequence (P48442 20-1079): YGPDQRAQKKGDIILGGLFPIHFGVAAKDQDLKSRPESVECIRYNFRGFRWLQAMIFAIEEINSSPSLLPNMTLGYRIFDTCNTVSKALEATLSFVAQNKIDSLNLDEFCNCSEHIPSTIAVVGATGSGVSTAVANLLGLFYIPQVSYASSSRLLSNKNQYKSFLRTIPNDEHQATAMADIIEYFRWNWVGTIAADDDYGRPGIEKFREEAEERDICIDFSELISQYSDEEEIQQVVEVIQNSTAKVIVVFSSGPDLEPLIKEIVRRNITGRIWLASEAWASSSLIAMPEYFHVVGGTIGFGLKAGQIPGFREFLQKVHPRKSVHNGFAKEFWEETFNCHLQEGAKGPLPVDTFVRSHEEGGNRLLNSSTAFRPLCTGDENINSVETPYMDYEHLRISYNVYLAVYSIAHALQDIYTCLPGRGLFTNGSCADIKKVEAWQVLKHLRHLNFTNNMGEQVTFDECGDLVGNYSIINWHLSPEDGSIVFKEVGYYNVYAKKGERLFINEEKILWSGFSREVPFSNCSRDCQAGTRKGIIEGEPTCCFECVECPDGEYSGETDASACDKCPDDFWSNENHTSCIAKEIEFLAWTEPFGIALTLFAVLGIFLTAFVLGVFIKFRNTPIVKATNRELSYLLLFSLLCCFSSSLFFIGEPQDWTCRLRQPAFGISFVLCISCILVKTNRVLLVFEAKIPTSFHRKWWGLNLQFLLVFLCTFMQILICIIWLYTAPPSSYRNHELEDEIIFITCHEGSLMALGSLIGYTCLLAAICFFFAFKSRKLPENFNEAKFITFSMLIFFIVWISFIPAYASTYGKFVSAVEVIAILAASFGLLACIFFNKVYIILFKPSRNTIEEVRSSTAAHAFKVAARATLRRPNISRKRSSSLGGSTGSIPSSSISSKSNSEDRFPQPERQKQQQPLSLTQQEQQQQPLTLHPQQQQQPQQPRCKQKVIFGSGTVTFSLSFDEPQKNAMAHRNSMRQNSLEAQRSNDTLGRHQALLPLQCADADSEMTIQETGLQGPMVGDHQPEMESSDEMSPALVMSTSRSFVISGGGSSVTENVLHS
Text: To assess the effects of molecular polycations on C-cells, a neoplastic cell line, derived from a rat medullary thyroid carcinoma (rMTC 6-23 cells) was used.

[3] = system: increases in [Ca2+]i elicited by extracellular Ca2+ in bovine parathyroid cells; assay: block of extracellular Ca2+-induced [Ca2+]i increase / Ca2+ influx in bovine parathyroid cells; format: cell-based
Procedure: (§3) The cells were then pelleted, resuspended in the same buffer, but lacking the ester, and incubated a further 15 minutes at 37° C. The cells were subsequently washed twice with PCB containing 0.5 mM CaCl2 and 0.5% BSA and maintained at room temperature (about 20° C.). Immediately before use, the cells were diluted five-fold with prewarmed 0.5 mM CaCl2 -PCB to obtain a final BSA concentration of 0.1%. The concentration of cells in the cuvette used for fluorescence recording was 1-2×10^6 /ml.
(§4) The fluorescence of indicator-loaded cells was measured at 37° C. in a spectrofluorimeter (Biomedical Instrumentation Group, University of Pennsylvania, Philadelphia, Pa.) equipped with a thermostated cuvette holder and magnetic stirrer using excitation and emission wavelengths of 340 and 510 nm, respectively. […] Leakage of dye is dependent on temperature and most occurs within the first 2 minutes after warming the cells in the cuvette. Dye leakage increases only very slowly thereafter. To correct the calibration for dye leakage, cells were placed in the cuvette and stirred at 37° C. for 2-3 minutes. The cell suspension was then removed, the cells pelleted, and the supernatant returned to a clean cuvette. […] This estimate was subtracted from the apparent Fmin.

net positive charge = format: physicochemical
[4] = system: parathyroid cell calcium receptor; format: cell-based; conditions: for EC50: screened as in Example 1
Procedure: For example, bovine parathyroid cells loaded with fura-2 are initially suspended in buffer containing 0.5 mM CaCl2. A test substance is added to the cuvette in a small volume (5-15 μl) and changes in the fluorescence signal are measured. Cumulative increases in the concentration of the test substance are made in the cuvette until some predetermined concentration is achieved or no further changes in fluorescence are noted.
This section describes procedures used to obtain and treat parathyroid cells from calves and humans. […] Human parathyroid glands, were obtained from patients undergoing surgical removal of parathyroid tissue for primary or uremic hyperparathyroidism (uremic HPT), and were treated similarly to bovine tissue.
Glands were trimmed of excess fat and connective tissue and then minced with fine scissors into cubes approximately 2-3 mm on a side. Dissociated parathyroid cells were prepared by collagenase digestion and then purified by centrifugation in Percoll buffer. The resultant parathyroid cell preparation was essentially devoid of red blood cells, adipocytes, and capillary tissue as assessed by phase contrast microscopy and Sudan black B staining. Dissociated and purified parathyroid cells were present as small clusters containing 5 to 20 cells.
as §3, §4
Dissociated bovine parathyroid cells were purified on gradients of Percoll and cultured overnight in serum-free medium.

[5] = target: T3, calcium receptor expressed from human parathyroid cell mRNA in Xenopus oocytes (Homo sapiens, UniProt P41180); assay: response of Xenopus oocytes injected with human parathyroid mRNA; format: cell-based; conditions: human parathyroid mRNA
T3 sequence (P41180 20-1078): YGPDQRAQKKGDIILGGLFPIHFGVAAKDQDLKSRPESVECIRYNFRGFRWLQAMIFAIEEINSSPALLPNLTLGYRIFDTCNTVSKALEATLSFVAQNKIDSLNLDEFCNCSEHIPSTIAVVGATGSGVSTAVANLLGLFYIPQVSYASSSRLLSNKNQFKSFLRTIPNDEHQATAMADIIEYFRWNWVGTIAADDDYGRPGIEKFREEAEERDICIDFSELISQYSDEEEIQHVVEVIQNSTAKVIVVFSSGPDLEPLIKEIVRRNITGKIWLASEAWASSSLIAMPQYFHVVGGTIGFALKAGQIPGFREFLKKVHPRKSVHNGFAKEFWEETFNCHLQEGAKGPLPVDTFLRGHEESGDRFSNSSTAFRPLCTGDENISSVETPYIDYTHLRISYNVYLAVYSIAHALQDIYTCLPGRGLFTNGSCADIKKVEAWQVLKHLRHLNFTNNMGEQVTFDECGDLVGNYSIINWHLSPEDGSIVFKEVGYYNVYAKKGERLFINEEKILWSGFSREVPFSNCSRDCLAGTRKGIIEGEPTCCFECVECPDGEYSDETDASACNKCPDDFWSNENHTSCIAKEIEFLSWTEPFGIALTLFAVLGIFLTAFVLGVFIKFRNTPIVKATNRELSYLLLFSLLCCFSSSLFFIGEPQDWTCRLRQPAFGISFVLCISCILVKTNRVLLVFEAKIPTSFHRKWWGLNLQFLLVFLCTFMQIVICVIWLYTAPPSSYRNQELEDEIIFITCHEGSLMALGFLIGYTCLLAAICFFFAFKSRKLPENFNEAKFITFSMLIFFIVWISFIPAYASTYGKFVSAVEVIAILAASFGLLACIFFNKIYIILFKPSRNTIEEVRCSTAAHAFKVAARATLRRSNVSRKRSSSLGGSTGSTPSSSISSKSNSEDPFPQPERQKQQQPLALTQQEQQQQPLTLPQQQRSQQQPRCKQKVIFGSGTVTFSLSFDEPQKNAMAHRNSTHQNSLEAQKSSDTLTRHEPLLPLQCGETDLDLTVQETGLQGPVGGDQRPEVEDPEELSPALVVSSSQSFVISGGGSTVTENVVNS
Procedure: Oocytes were injected with poly(A)^+ -enriched mRNA from human parathyroid tissue (hyperplastic glands from a case of secondary HPT).
as §1, §2
Using this screen allows one to test for an action directly on the calcium receptor. Oocytes expressing the calcium receptor also responded to several molecules active on intact parathyroid cells when screened as follows. […] This offers rather compelling evidence showing that these molecules act on the calcium receptor or on some other protein intimately associated with its function.

[6] = target: T4, bovine parathyroid cell calcium receptor (BoPCaR 1) (Bos taurus, UniProt P35384); assay: Cl- current in Xenopus oocytes expressing BoPCaR 1; format: cell-based; conditions: 1 mM extracellular Ca2+
T4 construct: Xenopus oocytes were injected with BoPCaR 1, the 5.3 Kb cDNA encoding a bovine parathyroid cell calcium receptor; expressed in transfected cells; host or cells: Xenopus laevis oocytes injected with cRNA/cDNA of BoPCaR 1
T4 sequence (P35384 20-1085): T1 sequence (P35384 20-1085)
Procedure: as §2
The techniques used to clone the parathyroid calcium receptor are briefly described in this example; a more complete description of the techniques is provided in preceding sections, which describe techniques which may be used to clone additional forms of the Ca^2+ -receptor from other cell types. Poly(A^+)-enriched mRNA was initially prepared from bovine parathyroid glands by extracting with guanidinium thiocyanate, centrifugation through CsCl and oligo(dT) cellulose chromatography. […] No such currents were elicited in control eggs injected with water.
These responses are mediated by the following series of biochemical events:
Xenopus oocytes were injected with BoPCaR 1, the 5.3 Kb cDNA encoding a bovine parathyroid cell calcium receptor as described in Example 25. After two to three days, Cl^- currents were examined in the oocytes using a two-electrode voltage clamp.
Xenopus oocytes were injected with BoPCaR 1 as described in Example 25. After two to three days, Cl^- currents were examined in the oocytes using two electrode voltage clamp.

[7] = system: PTH secretion from bovine parathyroid cells; assay: PTH secretion from bovine parathyroid cells; format: cell-based; conditions: bovine parathyroid cells
Procedure: PTH secretion was measured by first suspending cells in PCB containing 0.5 mM CaCl2 and 0.1% BSA.

[8] = target: T5, human parathyroid cells (calcium receptor) (Homo sapiens, UniProt P41180); format: cell-based; conditions: 1 μM
T5 sequence (P41180 20-1078): T3 sequence (P41180 20-1078)
Procedure: Human parathyroid glands, were obtained from patients undergoing surgical removal of parathyroid tissue for primary or uremic hyperparathyroidism (uremic HPT), and were treated similarly to bovine tissue.
as §3, §4

CC(NCCC(c1ccccc1)c1ccccc1)c1ccccc1 (racemic) [Fendiline, diphenylpropyl-α-phenethylamine]
EC50 ([1]; rat osteoclasts, indo-1, inactive = no increase in cytosolic Ca2+ at 1-5 mM, read-out: EC50 OSTEOCLAST (Table 6)): 200 µM | concentration eliciting oscillatory increases in Cl- current [2]: 100 µM | oscillatory increases in Cl- current (words) [2]: evokes the mobilization of intracellular | oscillatory increases in Cl- current (words) ([2]; listed as fendiline): evokes oscillatory increases | EC50 (C-cell calcium receptor): > 100 µM

NCCCCCCCCCCCCN [1,12-diaminododecane (DADD), 1,12-diaminododecane]
effect of pretreatment on increases in [Ca2+]i elicited by extracellular Ca2+ ([3]; 100 to 1000 μM): depresses steady-state, but not transient increases | fall in [Ca2+]i ([3]; 100 to 1000 μM, buffer containing 2 mM CaCl2): prompt fall | Net (+) Charge (Table 1) (net positive charge): +2

C1CNCCNCCNCCNCCNCCN1 [Hexacyclen, 1,4,7,10,13,16-hexaaza-cyclooctadecane]
relative potency (fold) ([4]; hexacyclen vs NPS 383): 7 fold | relative potency (fold) ([4]; hexacyclen vs […]): 25 fold | EC50 ([4]; parathyroid cells, read-out: EC50 (Table 1)): 20 µM | concentration effective in oocytes [5]: 135 µM | Net (+) Charge (Table 1) (net positive charge): +6

NCCCNCCCCNCCCNCCCN(O)CCCNC(=O)Cc1c[nH]c2cccc(O)c12 [NPS 015]
EC50 C-CELL (Table 6) (C-cell calcium receptor): inactive

NCCCNCCCCNCCCNCCCN(O)CCCNC(=O)Cc1c[nH]c2ccccc12 [NPS 017]
EC50 OSTEOCLAST (Table 6) ([1]; rat osteoclasts, indo-1, inactive = no increase in cytosolic Ca2+ at 1-5 mM): inactive | Cl- current [6]: oscillatory increases

CC(Cc1ccccc1)NCCC(c1ccccc1)c1ccccc1 (centres unmarked) [Prenylamine]
increase in [Ca2+]i (words) ([1]; rat osteoclasts): mobilization

NCCCCNCCCN [Spermidine, spermidine]
EC50 ([4]; read-out: EC50 (Table 3)): 2000 µM | increase in [Ca2+]i in osteoclasts, overall [1]: none of these caused any large increase | Net (+) Charge (Table 1) (net positive charge): +3

NCCCNCCCCNCCCN [Spermine, spermine]
inhibition of PTH secretion [7]: inhibits PTH secretion; also recorded: inhibited PTH secretion to the same extent

CCN(CC)CCCCCCCCOC(=O)c1cc(OC)c(OC)c(OC)c1 [TMB-8]
potentiation of mobilization of intracellular Ca2+ elicited by extracellular divalent cations ([4]; 100 μM): potentiated the mobilization of intracellular; also recorded: potentiated transient increases | change in [Ca2+]i ([4]; 100 μM, 0.5 mM extracellular Ca2+): evoked no change | increase in [Ca2+]i at intermediate extracellular Ca2+ ([4]; 100 μM, 1-[…] extracellular Ca2+): small, but robust increase | block of influx of extracellular Ca2+ ([3]; 100 μM): blocked the influx of extracellular

COCCOC(=O)C1=C(C)NC(C)=C(C(=O)OC(C)C)C1c1cccc([N+](=O)[O-])c1 (centres unmarked) [nimodipine]
effect on Mg2+-elicited sustained [Ca2+]i increase [8]: not affected
